Data: patent US7038074B2, “Arginine mimetics as factor Xa inhibitors” (Wilex AG, priority 2000, dated 2006)
“Also recorded” adds a separate entry of the source. Like-named read-outs stand apart in the source and are kept apart here. Values belong to the compound of their own block, whether it stands above or below them.

Assays:
factor Xa [1] = molecular target: T1, factor Xa (UniProt P00743); experiment: Determining the inhibitor constants (Ki, Dixon), factor Xa; type: biochemical, bovine or human; conditions: for Ki: 25° C., pH 8.0, species of factor Xa not given
T1 construct: Ki factor Xa; other: 25° C., pH 8.0; factor Xa activity of the D-enantiomer relative to the L-enantiomer 27; other: compound 28 versus compound 27; other: relative to compound 31
Experimental: (§1) The measurements were carried out at 25° C. on a microplate reader (MR 5000, Dynatech, Denkendorf, Germany). The test medium consisted of 200 μl of Tris buffer (0.05 M; 0.154 M NaCl, 5% ethanol, pH 8.0), 25 μl of aqueous substrate solution and 50 μl of enzyme solution. Two concentrations of the substrate and five concentrations of the inhibitor were used. Three minutes after adding the enzyme, 25 μl of acetic acid (50%) were added in order to quench the reaction and the optical density was measured at 405 nm. The Ki values were calculated in accordance with Dixon (M. Dixon (1953), Biochem. J. 55, 170–171) using a linear regression. The Ki values given in FIGS. 2 and 3 are means of at least three determinations.
(§2) The following enzymes and the corresponding substrates were used at the given final concentrations: bovine thrombin, prepared in accordance with Walsmann (P. Walsmann (1968), Pharmazie 23, 401–402) (2 262 U/mg, final concentration 0.45 U/ml), substrate MeSO2-D-hexahydrotyrosyl-Gly-Arg-pNA (final concentration 0.18 and 0.09 mM); bovine factor Xa (5 U/vial, 0.11 U/ml; Diagnostic Reagents Ltd., Thame, UK), substrate MeSO2-D-Nle-Gly-Arg-pNA (0.36 and 0.18 mM); human factor Xa (0.18 μg/ml; Kordia Lab. Supplies, Leiden, Netherlands), substrate as for bovine factor Xa human plasmin (0.67 CTA U/mg, 0.06 CTA U/ml; Behringwerke AG, Marburg, Germany), substrate Tos-Gly-Pro-Lys-pNA (0.18 and 0.09 mM); human uPA (500 000 U/vial, final concentration 150 U/ml; Ribosepharm GmbH Haan, Germany), substrate Bz-βAla-Gly-Arg-pNA (0.18 and 0.09 mM); bovine pancreas trypsin (42 U/mg, 0.0038 U/ml; Serva, Heidelberg, Germany), substrate MeSO2-D-hexahydrotyrosyl-Gly-Arg-pNA (0.18 and 0.06 mM).

factor Xa [2] = experiment: as above; type: biochemical, bovine or human
Experimental: as §1, §2

human uPA = molecular target: T2, human uPA (Homo sapiens, UniProt P00749); experiment: Determining the inhibitor constants, uPA; type: biochemical
T2 construct: purchased Ribosepharm GmbH Haan, Germany
Experimental: as §1, §2

[3] = Chemical and enzymic stability, stability towards acids; type: physicochemical; conditions: for example stomach acids
bovine pancreas trypsin = molecular target: T3, bovine pancreas trypsin (Bos taurus, UniProt P00760); experiment: Determining the inhibitor constants, trypsin; type: biochemical
T3 construct: purchased Serva, Heidelberg, Germany; host or cells: bovine pancreas
T3 sequence (P00760 24-246): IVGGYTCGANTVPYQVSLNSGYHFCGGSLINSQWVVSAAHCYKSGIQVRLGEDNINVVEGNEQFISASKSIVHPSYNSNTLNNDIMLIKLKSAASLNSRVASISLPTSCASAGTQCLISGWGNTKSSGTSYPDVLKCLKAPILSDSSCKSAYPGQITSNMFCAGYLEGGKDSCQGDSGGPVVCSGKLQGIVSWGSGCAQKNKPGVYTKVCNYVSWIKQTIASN
Experimental: as §1, §2

factor Xa [4] = conditions: prior art, Gabriel et al. 1998; cited from earlier work
bovine thrombin = molecular target: T4, bovine thrombin (Bos taurus, UniProt P00735); experiment: Determining the inhibitor constants, thrombin; type: biochemical
T4 construct: converts the zymogen prothrombin into its active form thrombin; made in house
Experimental: as §1, with “determinations. […]” for “determinations.”

stability (acids; chemical and enzymic) [3]: desirable stability towards acids
SMILES: COC(=O)C(Cc1cccc(C(=N)N)c1)NC(=O)NC12CC3CC(CC(C3)C1)C2.Cl (racemic) [Compound 12, N-1-adamantylaminocarbonyl-D,L-3-amidinophenylalanine methyl ester hydrochloride]
inhibition of uPA (in words) (human uPA): dramatic effects on the inhibition of uPA

factor by which FXa is inhibited better than by compound 31 (factor Xa [1]; relative to compound 31): 3 | inhibitory effect on factor Xa (in words) (factor Xa [2]): even more powerful inhibitory effect
SMILES: N=C(N)c1cccc(C[C@@H](NC(=O)NC23CC4CC(CC(C4)C2)C3)C(=O)NCCc2ccccc2)c1 [Compound 32, N-(1-adamantylaminocarbonyl)-D-3-amidinophenylalanine-(2-phenyl)-1-ethylamide]

inhibitory effect on factor Xa (in words) (factor Xa [2]): does not show any important differences
SMILES: Cl.N=C(N)c1cccc(CC(NC(=O)OC23CC4CC(CC(C4)C2)C3)C(=O)N2CCCCC2)c1 [Compound 17, N-1-adamantyloxycarbonyl-D,L-3-amidinophenylalanine piperidide hydrochloride]

inhibition of / affinity for trypsin (in words) (bovine pancreas trypsin): almost identical affinity
SMILES: COC(=O)[C@H](Cc1cccc(C(=N)N)c1)NC(=O)OC12CC3CC(CC(C3)C1)C2.Cl [Compound 27, N-1-adamantyloxycarbonyl-L-3-amidinophenylalanine methyl ester hydrochloride]
inhibition of uPA (in words) (human uPA): only capable of recognizing the L-enantiomer

Second part, the compound before the results:

SMILES: Cl.N=C(N)c1cccc(C[C@@H](NC(=O)OC23CC4CC(CC(C4)C2)C3)C(=O)NCCc2ccccc2)c1 [Compound 31, N-1-adamantyloxycarbonyl-D-3-amidinophenylalanine-(2-phenyl)-1-ethylamine hydrochloride]
Ki (factor Xa [1]): 74 nM | inhibitory effect on factor Xa (in words) (factor Xa [2]; hydrochloride): strongest inhibitor | inhibitory effect on factor Xa (in words) (factor Xa [2]; listed as N-1-adamantyloxycarbonyl-D-3-amidinophenylalanine-(2-phenyl)-1-ethylamide, hydrochloride): very powerful inhibitory effect

SMILES: COC(=O)[C@@H](Cc1cccc(C(=N)N)c1)NC(=O)OC12CC3CC(CC(C3)C1)C2.Cl [Compound 28, N-1-adamantyloxycarbonyl-D-3-amidinophenylalanine methyl ester hydrochloride]
Ki (factor Xa [1]): 390 nM | factor Xa activity of the D-enantiomer relative to the L-enantiomer 27 (factor Xa [1]; compound 28 versus compound 27): about 10 times | inhibition of uPA (in words) (human uPA): only capable of recognizing the L-enantiomer | inhibition of / affinity for trypsin (in words) (bovine pancreas trypsin): almost identical affinity

SMILES: Cl.N=C(N)c1cccc(CC(NC(=O)OC23CC4CC(CC(C4)C2)C3)C(=O)O)c1 (racemic) [Compound 15, N-1-adamantyloxylcarbonyl-D,L-3-amidinophenylalanine hydrochloride]
inhibitory effect on factor Xa (in words) (factor Xa [2]): does not show any important differences

SMILES: CCOC(=O)C(Cc1ccc(C(=N)N)cc1)NC(=O)CNS(=O)(=O)c1ccc(C(=N)N)cc1 (racemic) [Compound 2, N^α-4-amidinobenzenesulfonylglycyl-D,L-4-amidinophenylalanine ethyl ester]
Ki (factor Xa [4]): 500 nM

SMILES: COC(=O)C(Cc1cccc(C(=N)N)c1)NC(=O)OC12CC3CC(CC(C3)C1)C2.Cl (racemic) [Compound 11, N-1-adamantyloxycarbonyl-D,L-3-amidinophenylalanine methyl ester hydrochloride]
selectivity for factor Xa vis-à-vis uPA, thrombin and trypsin (factor Xa [2]): remarkable selectivity | inhibitory effect on factor Xa (in words) (factor Xa [2]; hydrochloride): significantly increased inhibitory effect; also recorded: submicromolar inhibition

SMILES: COC(=O)C(Cc1ccc(NC(=N)N)cc1)NC(=O)OC12CC3CC(CC(C3)C1)C2.Cl (racemic) [Compound 26, N-1-adamantyloxycarbonyl-D,L-4-guanidinophenylalanine methyl ester hydrochloride]
inhibitory effect on factor Xa (in words) (factor Xa [2]): dramatic loss in inhibitory activity | inhibition of uPA (in words) (human uPA): dramatic loss in inhibitory activity | inhibition of thrombin (in words) (bovine thrombin): dramatic loss in inhibitory activity | inhibition of / affinity for trypsin (in words) (bovine pancreas trypsin): dramatic loss in inhibitory activity
